Experiments:
Test in all cases: Selectivity profiling, QuickScout TK Screening Panel
Format in all cases: biochemical
[1] = molecular target: T1, TRKA (Homo sapiens, UniProt P04629)
T1 construct: purchased Carna Biosciences
Protocol: (§1) The inhibitory effects of Compound 1 against 20 tyrosine kinases and 30 serine/threonine kinases were investigated using QuickScout™ TK and STK Screening Panel (Carna Biosciences, Kobe Japan). […] The results reveal that Compound 1 inhibits TNIK_N more potently (IC50; 9 nM) than the other 50 kinases.

[2] = molecular target: T2, JAK3 (Homo sapiens, UniProt P52333)
T2 construct: purchased Carna Biosciences
T2 sequence (P52333 whole entry): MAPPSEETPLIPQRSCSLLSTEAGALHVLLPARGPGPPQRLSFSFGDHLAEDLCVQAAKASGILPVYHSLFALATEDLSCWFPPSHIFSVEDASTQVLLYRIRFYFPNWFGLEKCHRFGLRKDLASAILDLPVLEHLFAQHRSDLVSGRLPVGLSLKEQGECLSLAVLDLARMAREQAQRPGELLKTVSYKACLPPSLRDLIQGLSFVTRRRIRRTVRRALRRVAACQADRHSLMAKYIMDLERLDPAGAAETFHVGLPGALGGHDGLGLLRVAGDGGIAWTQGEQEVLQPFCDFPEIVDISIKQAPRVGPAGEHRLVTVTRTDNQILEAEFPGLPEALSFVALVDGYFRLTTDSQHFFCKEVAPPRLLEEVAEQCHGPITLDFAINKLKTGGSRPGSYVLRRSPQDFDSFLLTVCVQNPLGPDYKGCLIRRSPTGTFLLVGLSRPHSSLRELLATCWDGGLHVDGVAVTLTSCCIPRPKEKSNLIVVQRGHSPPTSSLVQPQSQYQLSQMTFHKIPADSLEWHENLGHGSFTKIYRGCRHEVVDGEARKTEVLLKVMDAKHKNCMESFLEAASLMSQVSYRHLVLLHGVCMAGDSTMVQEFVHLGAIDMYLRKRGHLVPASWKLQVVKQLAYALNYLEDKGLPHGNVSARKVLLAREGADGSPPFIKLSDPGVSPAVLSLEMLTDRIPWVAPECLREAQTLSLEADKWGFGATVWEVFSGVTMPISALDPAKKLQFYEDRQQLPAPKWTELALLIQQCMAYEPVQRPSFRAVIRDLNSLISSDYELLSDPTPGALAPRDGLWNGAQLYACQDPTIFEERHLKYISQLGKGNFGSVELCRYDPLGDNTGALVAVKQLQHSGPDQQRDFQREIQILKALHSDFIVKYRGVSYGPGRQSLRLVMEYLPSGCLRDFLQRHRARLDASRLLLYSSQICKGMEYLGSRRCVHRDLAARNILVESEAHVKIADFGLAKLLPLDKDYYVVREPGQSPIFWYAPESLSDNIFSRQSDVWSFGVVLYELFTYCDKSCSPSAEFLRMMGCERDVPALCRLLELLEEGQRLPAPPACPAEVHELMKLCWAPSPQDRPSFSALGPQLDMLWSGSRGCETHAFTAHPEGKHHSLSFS
Protocol: as §1

[3] = molecular target: T3, ITK (Homo sapiens, UniProt Q08881)
T3 construct: purchased Carna Biosciences
T3 sequence (Q08881 whole entry): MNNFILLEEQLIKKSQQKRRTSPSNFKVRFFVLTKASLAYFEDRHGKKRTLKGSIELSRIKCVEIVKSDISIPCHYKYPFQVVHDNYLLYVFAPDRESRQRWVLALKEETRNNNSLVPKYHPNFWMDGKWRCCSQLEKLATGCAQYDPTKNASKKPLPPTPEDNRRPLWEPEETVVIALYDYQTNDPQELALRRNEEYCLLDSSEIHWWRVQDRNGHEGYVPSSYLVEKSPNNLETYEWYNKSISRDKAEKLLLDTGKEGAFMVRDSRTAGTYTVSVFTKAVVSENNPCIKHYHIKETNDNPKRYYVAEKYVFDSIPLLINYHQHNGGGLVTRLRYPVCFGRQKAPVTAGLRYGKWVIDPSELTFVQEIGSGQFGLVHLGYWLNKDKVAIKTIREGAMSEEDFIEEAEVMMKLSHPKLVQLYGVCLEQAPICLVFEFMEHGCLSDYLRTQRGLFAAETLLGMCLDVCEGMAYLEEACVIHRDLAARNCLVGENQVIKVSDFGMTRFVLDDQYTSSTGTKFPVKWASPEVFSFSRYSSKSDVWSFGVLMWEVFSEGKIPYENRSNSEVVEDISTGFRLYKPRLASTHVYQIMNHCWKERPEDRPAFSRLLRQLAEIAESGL
Protocol: as §1

[4] = molecular target: T4, TYRO3 (Homo sapiens, UniProt Q06418)
T4 construct: purchased Carna Biosciences
Protocol: as §1

[5] = molecular target: T5, PYK2 (Homo sapiens, UniProt Q14289)
T5 construct: purchased Carna Biosciences
T5 sequence (Q14289 whole entry): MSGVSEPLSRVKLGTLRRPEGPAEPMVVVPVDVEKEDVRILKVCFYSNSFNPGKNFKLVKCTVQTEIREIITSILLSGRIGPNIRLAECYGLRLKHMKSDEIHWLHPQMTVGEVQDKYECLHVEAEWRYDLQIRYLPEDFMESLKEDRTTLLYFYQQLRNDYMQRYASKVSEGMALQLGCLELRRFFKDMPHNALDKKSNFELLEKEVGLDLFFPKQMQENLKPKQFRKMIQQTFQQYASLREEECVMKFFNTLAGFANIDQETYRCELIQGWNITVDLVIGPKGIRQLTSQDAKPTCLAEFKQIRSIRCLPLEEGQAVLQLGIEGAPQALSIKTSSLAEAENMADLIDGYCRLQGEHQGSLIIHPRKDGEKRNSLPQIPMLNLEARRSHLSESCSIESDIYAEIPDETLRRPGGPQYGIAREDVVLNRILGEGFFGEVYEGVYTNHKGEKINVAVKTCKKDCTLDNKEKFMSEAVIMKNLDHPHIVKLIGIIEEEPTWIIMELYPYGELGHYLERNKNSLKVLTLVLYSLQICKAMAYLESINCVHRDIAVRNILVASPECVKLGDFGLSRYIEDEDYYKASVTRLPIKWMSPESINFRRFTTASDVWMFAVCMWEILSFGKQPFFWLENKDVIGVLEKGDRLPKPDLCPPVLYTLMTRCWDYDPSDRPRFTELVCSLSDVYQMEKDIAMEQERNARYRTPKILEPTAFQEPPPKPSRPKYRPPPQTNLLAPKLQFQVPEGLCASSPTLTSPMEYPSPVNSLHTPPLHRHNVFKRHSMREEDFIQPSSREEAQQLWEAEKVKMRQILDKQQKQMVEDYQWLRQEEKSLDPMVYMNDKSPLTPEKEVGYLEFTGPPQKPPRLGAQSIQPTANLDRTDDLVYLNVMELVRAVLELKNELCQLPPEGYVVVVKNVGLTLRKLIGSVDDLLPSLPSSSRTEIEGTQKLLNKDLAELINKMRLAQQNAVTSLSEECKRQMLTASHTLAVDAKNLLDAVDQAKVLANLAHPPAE
Protocol: as §1

[6] = molecular target: T6, TIE2 (Homo sapiens, UniProt Q02763)
T6 construct: purchased Carna Biosciences
Protocol: as §1

[7] = molecular target: T7, EphB4 (Homo sapiens, UniProt P54760)
T7 construct: purchased Carna Biosciences
Protocol: as §1

[8] = molecular target: T8, LCK (Homo sapiens, UniProt P06239)
T8 construct: purchased Carna Biosciences
Protocol: as §1

[9] = molecular target: T9, MET (Homo sapiens, UniProt P08581)
T9 construct: purchased Carna Biosciences
T9 sequence (P08581 25-1390): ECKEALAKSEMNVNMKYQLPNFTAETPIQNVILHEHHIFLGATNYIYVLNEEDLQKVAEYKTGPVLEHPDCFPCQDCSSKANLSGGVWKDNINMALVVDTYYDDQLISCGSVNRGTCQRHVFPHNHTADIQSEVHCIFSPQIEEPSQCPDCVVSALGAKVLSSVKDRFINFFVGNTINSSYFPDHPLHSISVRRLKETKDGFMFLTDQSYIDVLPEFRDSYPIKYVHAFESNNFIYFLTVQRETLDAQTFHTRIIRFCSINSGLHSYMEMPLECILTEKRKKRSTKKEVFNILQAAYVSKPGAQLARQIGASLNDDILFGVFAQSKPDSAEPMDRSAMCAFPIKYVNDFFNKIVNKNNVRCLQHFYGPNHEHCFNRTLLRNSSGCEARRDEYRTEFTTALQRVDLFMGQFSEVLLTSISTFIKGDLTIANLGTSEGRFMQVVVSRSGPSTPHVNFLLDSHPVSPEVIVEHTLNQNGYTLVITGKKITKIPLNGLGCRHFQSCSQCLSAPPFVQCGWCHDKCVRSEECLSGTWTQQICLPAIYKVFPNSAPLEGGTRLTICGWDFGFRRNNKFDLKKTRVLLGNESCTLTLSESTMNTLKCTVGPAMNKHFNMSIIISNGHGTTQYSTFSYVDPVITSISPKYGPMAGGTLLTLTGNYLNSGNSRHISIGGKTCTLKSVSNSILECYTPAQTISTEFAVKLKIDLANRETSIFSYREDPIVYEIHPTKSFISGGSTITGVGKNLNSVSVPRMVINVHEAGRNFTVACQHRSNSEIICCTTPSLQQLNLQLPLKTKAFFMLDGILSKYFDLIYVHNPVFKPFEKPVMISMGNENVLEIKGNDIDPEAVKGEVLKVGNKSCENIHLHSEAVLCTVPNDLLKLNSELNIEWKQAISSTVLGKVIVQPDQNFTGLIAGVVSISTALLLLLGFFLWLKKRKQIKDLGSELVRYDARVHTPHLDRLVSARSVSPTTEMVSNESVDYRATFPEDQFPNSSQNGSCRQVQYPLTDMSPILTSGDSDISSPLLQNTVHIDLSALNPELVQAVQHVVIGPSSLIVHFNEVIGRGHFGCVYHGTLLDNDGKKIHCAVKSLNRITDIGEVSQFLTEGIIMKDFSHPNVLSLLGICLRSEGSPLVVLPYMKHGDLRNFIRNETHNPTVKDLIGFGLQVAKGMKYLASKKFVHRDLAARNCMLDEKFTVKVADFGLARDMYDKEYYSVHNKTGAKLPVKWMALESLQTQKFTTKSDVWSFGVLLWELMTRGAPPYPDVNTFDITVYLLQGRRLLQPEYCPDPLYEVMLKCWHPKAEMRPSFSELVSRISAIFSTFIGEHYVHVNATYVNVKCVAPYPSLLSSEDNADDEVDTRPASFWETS
Protocol: as §1

[10] = molecular target: T10, SRC (Homo sapiens, UniProt P12931)
T10 construct: purchased Carna Biosciences
T10 sequence (P12931 whole entry): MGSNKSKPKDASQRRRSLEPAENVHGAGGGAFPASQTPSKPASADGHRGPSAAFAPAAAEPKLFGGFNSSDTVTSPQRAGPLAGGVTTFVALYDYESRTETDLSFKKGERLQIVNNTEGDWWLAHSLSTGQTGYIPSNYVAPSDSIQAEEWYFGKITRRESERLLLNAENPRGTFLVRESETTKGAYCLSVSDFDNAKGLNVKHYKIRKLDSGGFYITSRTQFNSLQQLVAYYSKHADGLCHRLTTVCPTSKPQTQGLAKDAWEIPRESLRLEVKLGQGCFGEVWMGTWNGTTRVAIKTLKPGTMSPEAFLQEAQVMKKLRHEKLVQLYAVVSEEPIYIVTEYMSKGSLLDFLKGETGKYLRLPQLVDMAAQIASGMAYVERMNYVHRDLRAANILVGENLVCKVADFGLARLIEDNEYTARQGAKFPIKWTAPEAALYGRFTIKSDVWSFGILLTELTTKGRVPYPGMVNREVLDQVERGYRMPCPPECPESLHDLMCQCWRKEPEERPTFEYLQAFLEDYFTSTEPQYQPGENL
Protocol: as §1

[11] = molecular target: T11, EphA2 (Homo sapiens, UniProt P29317)
T11 construct: purchased Carna Biosciences
Protocol: as §1

[12] = molecular target: T12, KDR (Homo sapiens, UniProt P35968)
T12 construct: purchased Carna Biosciences
Protocol: as §1

[13] = molecular target: T13, SYK (Homo sapiens, UniProt P43405)
T13 construct: purchased Carna Biosciences
Protocol: as §1

[14] = molecular target: T14, IGF1R (Homo sapiens, UniProt P08069)
T14 construct: purchased Carna Biosciences
Protocol: as §1

[15] = molecular target: T15, ABL (Homo sapiens, UniProt P00519)
T15 construct: purchased Carna Biosciences
Protocol: as §1

[16] = molecular target: T16, FLT3 (Homo sapiens, UniProt P36888)
T16 construct: purchased Carna Biosciences
Protocol: as §1

[17] = molecular target: T17, FGFR1 (Homo sapiens, UniProt P11362)
T17 construct: purchased Carna Biosciences
Protocol: as §1

[18] = molecular target: T18, PDGFRa (Homo sapiens, UniProt P16234)
T18 construct: purchased Carna Biosciences
Protocol: as §1

[19] = molecular target: T19, CSK (Homo sapiens, UniProt P41240)
T19 construct: purchased Carna Biosciences
T19 sequence (P41240 whole entry): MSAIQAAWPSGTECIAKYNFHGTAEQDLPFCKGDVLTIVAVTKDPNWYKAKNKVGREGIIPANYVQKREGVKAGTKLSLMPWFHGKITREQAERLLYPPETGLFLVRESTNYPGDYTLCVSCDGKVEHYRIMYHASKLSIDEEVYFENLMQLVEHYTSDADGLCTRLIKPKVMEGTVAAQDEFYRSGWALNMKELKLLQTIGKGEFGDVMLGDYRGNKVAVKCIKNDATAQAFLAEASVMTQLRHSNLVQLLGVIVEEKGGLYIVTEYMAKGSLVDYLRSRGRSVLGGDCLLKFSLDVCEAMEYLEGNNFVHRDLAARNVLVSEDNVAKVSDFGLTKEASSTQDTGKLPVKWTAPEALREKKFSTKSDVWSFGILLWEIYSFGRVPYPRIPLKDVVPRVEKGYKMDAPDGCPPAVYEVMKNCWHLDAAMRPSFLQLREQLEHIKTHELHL
Protocol: as §1

**Q.** Which IC50 [1] does the source give for `CC(=O)Nc1ccc(C(=O)Nc2sc(Nc3ccccc3)nc2C(N)=O)cc1` [Compound 1, 5-(4-acetamidobenzamido)-2-(phenylamino)thiazole-4-carboxamide] here?
**A.** > 300 nM

**Q.** And the IC50 [2]?
**A.** > 300 nM

**Q.** What about the IC50 [3] of the same compound?
**A.** > 300 nM

**Q.** And the IC50 [4]?
**A.** > 300 nM

**Q.** And the IC50 [5]?
**A.** > 300 nM

**Q.** What about the IC50 [6] of the same compound?
**A.** > 300 nM

**Q.** And the IC50 [7]?
**A.** > 300 nM

**Q.** What about the IC50 [8] of the same compound?
**A.** > 300 nM

**Q.** What about the IC50 [9] of the same compound?
**A.** > 300 nM

**Q.** And the IC50 [10]?
**A.** > 300 nM

**Q.** What about the IC50 [11] of the same compound?
**A.** > 300 nM

**Q.** And the IC50 [12]?
**A.** 59 nM

**Q.** What about the IC50 [13] of the same compound?
**A.** > 300 nM

**Q.** What about the IC50 [14] of the same compound?
**A.** > 300 nM

**Q.** What about the IC50 [15] of the same compound?
**A.** 290 nM

**Q.** What about the IC50 [16] of the same compound?
**A.** 95 nM

**Q.** What about the IC50 [17] of the same compound?
**A.** > 300 nM

**Q.** And the IC50 [18]?
**A.** 150 nM

**Q.** And the IC50 [19]?
**A.** > 300 nM

Source: US20100216795A1, “TNIK INHIBITOR AND THE USE” (priority 2008, published 2010)
